SMILES strings stand for the structures. The source made the active and inactive calls. The calls are words filed in the database; no cut-off is given here.

Experiment [1] deals with Interleukin-2 (Homo sapiens) (UniProt P60568). Briefly: Induction of stability of human recombinant interleukin 2 assessed as half life in Sprague-Dawley rat plasma at 0.8 mg/kg, iv measured up to 24 hrs by ELISA (Rvb= 1.26+/-0.18 hrs). In kind it is organism-based. The note with it: time hrs <=24. In general terms: ELISA stands for enzyme-linked immunosorbent assay.
Experiment [2] deals with T1, Transthyretin (Homo sapiens, UniProt P02766). Kind of experiment: Binding affinity to human TTR in human serum assessed as target occupancy at 10 uM measured every 15 mins for 6 hrs by fluorescent probe exclusion selectivity assay. In kind it is cell-free.
Experiment [3] concerns the target T1, Transthyretin. Briefly: Binding affinity to human TTR assessed as binding constant in PBS buffer at pH 7.4 measured after 20 mins fluorescence polarization assay. A general note: Fluorescence polarisation rises when a labelled molecule tumbles more slowly, as on binding a larger partner.
In experiment [4] the target is Interleukin-2 (Homo sapiens) (UniProt P60568). Kind of experiment: Induction of stability of human recombinant interleukin 2 assessed as mean residence time in Sprague-Dawley rat at 0.8 mg/kg, iv measured up to 24 hrs by ELISA (Rvb= 1.04+/-0.07 hrs). In kind it is organism-based. The note with it: time hrs <=24.
The target is the same in experiment [5]. Briefly: Induction of stability of human recombinant interleukin 2 assessed as effect on mouse CTLL-2 cell proliferation in presence of TTR measured after 48 hrs by WST-1 assay. (Tetrazolium assays rely on reduction of a dye to a coloured formazan, in cell work by metabolically active cells.)
For experiment [6] the target is unchanged. Kind of experiment: Induction of stability of human recombinant interleukin 2 assessed as binding affinity to human TTR in human serum by measuring target occupancy at 10 uM measured every 15 mins for 6 hrs by fluorescent probe exclusion selectivity assay. In kind it is cell-free.

Chain of Interleukin-2 (Homo sapiens) (P60568 whole entry): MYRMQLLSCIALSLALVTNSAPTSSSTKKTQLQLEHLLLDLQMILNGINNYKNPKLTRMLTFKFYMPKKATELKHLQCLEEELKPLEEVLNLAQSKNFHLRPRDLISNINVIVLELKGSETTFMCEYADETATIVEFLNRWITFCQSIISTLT

As for `Cc1n[nH]c(C)c1CCCOc1cc(OCCCc2cn(CCOCCOCCOCCOCCNC(=O)C3CCC(CN4C(=O)C=CC4=O)CC3)nn2)cc(C(=O)O)c1` (stereo unspecified), in experiment [1], the T1/2 was 5.22 h. The Occ was 51.8% at Transthyretin [2] and 52.6% in experiment [6]. On Transthyretin [3], the Kd came to 516 nM. In addition, the MRT in experiment [4] stood at 8.76 h. The result in experiment [5] was inactive.

A word on the Kd: it is a measure of binding affinity in units of concentration.

Source of the values: ChEMBL document CHEMBL5029163, “Enhancing the Pharmacokinetic Profile of Interleukin 2 through Site-Specific Conjugation to a Selective Small-Molecule Transthyretin Ligand” (J Med Chem, 2021).
